{"source": "patent US20260284018A1", "about": "“DUAL INHIBITORS OF DYRK1A AND 5-HT2 FOR TREATING A BRAIN DISORDER” (THE REGENTS OF THE UNIVERSITY OF CALIFORNIA, priority 2023, published 2026)", "key": {"KIT(V559D, T670I)": {"target": "T1, KIT(V559D, T670I) (Homo sapiens, UniProt P10721, T670I/V559D)", "T1 construct": "purchased Eurofins DiscoverX", "T1 sequence (P10721 26-976 V559D/T670I)": "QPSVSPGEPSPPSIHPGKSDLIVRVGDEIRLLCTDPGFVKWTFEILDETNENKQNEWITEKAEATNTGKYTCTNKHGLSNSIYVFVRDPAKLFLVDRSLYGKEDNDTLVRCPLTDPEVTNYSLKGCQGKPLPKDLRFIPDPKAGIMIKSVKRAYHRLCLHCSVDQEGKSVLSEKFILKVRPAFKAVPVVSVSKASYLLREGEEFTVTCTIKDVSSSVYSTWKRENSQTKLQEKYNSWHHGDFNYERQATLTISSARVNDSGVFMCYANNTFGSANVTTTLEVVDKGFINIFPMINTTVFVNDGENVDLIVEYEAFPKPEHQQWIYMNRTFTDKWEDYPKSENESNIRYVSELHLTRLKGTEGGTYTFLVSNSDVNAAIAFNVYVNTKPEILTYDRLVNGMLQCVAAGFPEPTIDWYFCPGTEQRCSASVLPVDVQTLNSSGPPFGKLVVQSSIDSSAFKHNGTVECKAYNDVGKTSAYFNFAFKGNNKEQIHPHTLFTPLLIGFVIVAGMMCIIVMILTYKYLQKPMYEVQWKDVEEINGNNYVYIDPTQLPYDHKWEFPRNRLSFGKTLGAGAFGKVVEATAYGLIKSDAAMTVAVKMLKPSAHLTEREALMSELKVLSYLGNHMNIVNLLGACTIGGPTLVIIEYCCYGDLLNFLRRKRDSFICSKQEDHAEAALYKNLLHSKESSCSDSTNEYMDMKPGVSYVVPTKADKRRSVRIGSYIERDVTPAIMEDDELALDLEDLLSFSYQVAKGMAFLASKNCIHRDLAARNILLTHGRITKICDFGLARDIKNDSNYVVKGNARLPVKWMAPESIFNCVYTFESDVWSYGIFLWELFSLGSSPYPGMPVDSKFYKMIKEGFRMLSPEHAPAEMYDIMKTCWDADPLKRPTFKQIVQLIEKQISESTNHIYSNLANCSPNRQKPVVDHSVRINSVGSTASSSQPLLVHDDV", "assay": "KINOMEscan scanEDGE", "format": "binding", "conditions": "read-out: Percent Control", "experimental": "(§1) Kinome Scan. Compound HTW_A_8 fumarate was screened against 97 kinases at a single concentration of 10 μM at Eurofins DiscoverX using their KINOMEscan™ scanEDGE assay. The results are reported as the % activity relative to DMSO control, where lower values indicate higher affinity. See Table 1 for the full kinome profile."}, "EGFR(L858R)": {"target": "T2, EGFR(L858R) (Homo sapiens, UniProt P00533, L858R)", "T2 construct": "purchased Eurofins DiscoverX", "assay": "KINOMEscan scanEDGE", "format": "binding", "conditions": "read-out: Percent Control", "experimental": "as §1"}, "DCAMKL1": {"target": "T3, DCAMKL1 (Homo sapiens, UniProt O15075)", "T3 construct": "purchased Eurofins DiscoverX", "assay": "KINOMEscan scanEDGE", "format": "binding", "conditions": "read-out: Percent Control", "experimental": "as §1"}, "MAPKAPK2": {"target": "T4, MAPKAPK2 (Homo sapiens, UniProt P49137)", "T4 construct": "purchased Eurofins DiscoverX (KINOMEscan scanEDGE service)", "assay": "KINOMEscan scanEDGE", "format": "binding", "conditions": "read-out: Percent Control", "experimental": "as §1"}, "p38-alpha": {"target": "T5, p38-alpha (Homo sapiens, UniProt Q16539)", "T5 construct": "purchased Eurofins DiscoverX (KINOMEscan scanEDGE service)", "assay": "KINOMEscan scanEDGE", "format": "binding", "conditions": "read-out: Percent Control", "experimental": "as §1"}, "AXL": {"target": "T6, AXL (Homo sapiens, UniProt P30530)", "T6 construct": "purchased Eurofins DiscoverX", "assay": "KINOMEscan scanEDGE", "format": "binding", "conditions": "read-out: Percent Control", "experimental": "as §1"}, "MKNK1": {"target": "T7, MKNK1 (Homo sapiens, UniProt Q9BUB5)", "T7 construct": "purchased Eurofins DiscoverX (KINOMEscan scanEDGE service)", "assay": "KINOMEscan scanEDGE", "format": "binding", "conditions": "read-out: Percent Control", "experimental": "as §1"}, "KIT": {"target": "T8, KIT (Homo sapiens, UniProt P10721)", "T8 construct": "purchased Eurofins DiscoverX", "T8 sequence (P10721 26-976)": "as the sequence (P10721 26-976 V559D/T670I) above, with D534V, I645T counted along it", "assay": "KINOMEscan scanEDGE", "format": "binding", "conditions": "read-out: Percent Control", "experimental": "as §1"}, "BTK": {"target": "T9, BTK (Homo sapiens, UniProt Q06187)", "T9 construct": "purchased Eurofins DiscoverX", "assay": "KINOMEscan scanEDGE", "format": "binding", "conditions": "read-out: Percent Control", "experimental": "as §1"}, "[1]": {"target": "T10, JAK3(JH1domain-catalytic) (Homo sapiens, UniProt P52333)", "T10 construct": "JAK3(JH1domain-catalytic); purchased Eurofins DiscoverX", "T10 sequence (P52333 822-1111 limits assumed)": "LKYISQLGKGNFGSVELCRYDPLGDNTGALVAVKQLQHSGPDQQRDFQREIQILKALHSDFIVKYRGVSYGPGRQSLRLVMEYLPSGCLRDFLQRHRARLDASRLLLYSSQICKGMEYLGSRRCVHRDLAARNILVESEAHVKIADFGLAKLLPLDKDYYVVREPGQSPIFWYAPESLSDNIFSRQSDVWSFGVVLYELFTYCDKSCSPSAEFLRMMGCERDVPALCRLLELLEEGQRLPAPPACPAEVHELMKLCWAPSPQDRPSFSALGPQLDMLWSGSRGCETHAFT", "assay": "KINOMEscan scanEDGE", "format": "binding", "conditions": "read-out: Percent Control", "experimental": "as §1"}, "CDK11": {"target": "T11, CDK11 (Homo sapiens, UniProt Q9BWU1)", "T11 construct": "purchased Eurofins DiscoverX", "assay": "KINOMEscan scanEDGE", "format": "binding", "conditions": "read-out: Percent Control", "experimental": "as §1"}, "MEK2": {"target": "T12, MEK2 (Homo sapiens, UniProt P36507)", "T12 construct": "purchased Eurofins DiscoverX (KINOMEscan scanEDGE service)", "assay": "KINOMEscan scanEDGE", "format": "binding", "conditions": "read-out: Percent Control", "experimental": "as §1"}, "PIM1": {"target": "T13, PIM1 (Homo sapiens, UniProt P11309)", "T13 construct": "purchased Eurofins DiscoverX (KINOMEscan scanEDGE service)", "assay": "KINOMEscan scanEDGE", "format": "binding", "conditions": "read-out: Percent Control", "experimental": "as §1"}, "AURKB": {"target": "T14, AURKB (Homo sapiens, UniProt Q96GD4)", "T14 construct": "purchased Eurofins DiscoverX", "assay": "KINOMEscan scanEDGE", "format": "binding", "conditions": "read-out: Percent Control", "experimental": "as §1"}, "MAP3K4": {"target": "T15, MAP3K4 (Homo sapiens, UniProt Q9Y6R4)", "T15 construct": "purchased Eurofins DiscoverX (KINOMEscan scanEDGE service)", "assay": "KINOMEscan scanEDGE", "format": "binding", "conditions": "read-out: Percent Control", "experimental": "as §1"}, "AKT2": {"target": "T16, AKT2 (Homo sapiens, UniProt P31751)", "T16 construct": "purchased Eurofins DiscoverX", "assay": "KINOMEscan scanEDGE", "format": "binding", "conditions": "read-out: Percent Control", "experimental": "as §1"}, "PAK2": {"target": "T17, PAK2 (Homo sapiens, UniProt Q13177)", "T17 construct": "purchased Eurofins DiscoverX (KINOMEscan scanEDGE service)", "assay": "KINOMEscan scanEDGE", "format": "binding", "conditions": "read-out: Percent Control", "experimental": "as §1"}, "CSNK1G2": {"target": "T18, CSNK1G2 (Homo sapiens, UniProt P78368)", "T18 construct": "purchased Eurofins DiscoverX", "assay": "KINOMEscan scanEDGE", "format": "binding", "conditions": "read-out: Percent Control", "experimental": "as §1"}, "PIK3CA": {"target": "T19, PIK3CA (Homo sapiens, UniProt P42336)", "T19 construct": "purchased Eurofins DiscoverX (KINOMEscan scanEDGE service)", "assay": "KINOMEscan scanEDGE", "format": "binding", "conditions": "read-out: Percent Control", "experimental": "as §1"}, "MEK1": {"target": "T20, MEK1 (Homo sapiens, UniProt Q02750)", "T20 construct": "purchased Eurofins DiscoverX (KINOMEscan scanEDGE service)", "assay": "KINOMEscan scanEDGE", "format": "binding", "conditions": "read-out: Percent Control", "experimental": "as §1"}, "MKNK2": {"target": "T21, MKNK2 (Homo sapiens, UniProt Q9HBH9)", "T21 construct": "purchased Eurofins DiscoverX (KINOMEscan scanEDGE service)", "assay": "KINOMEscan scanEDGE", "format": "binding", "conditions": "read-out: Percent Control", "experimental": "as §1"}, "TGFBR1 [2]": {"target": "T22, TGFBR1 (Homo sapiens, UniProt P36897)", "T22 construct": "purchased Eurofins DiscoverX KINOMEscan scanEDGE", "T22 sequence (P36897 34-503)": "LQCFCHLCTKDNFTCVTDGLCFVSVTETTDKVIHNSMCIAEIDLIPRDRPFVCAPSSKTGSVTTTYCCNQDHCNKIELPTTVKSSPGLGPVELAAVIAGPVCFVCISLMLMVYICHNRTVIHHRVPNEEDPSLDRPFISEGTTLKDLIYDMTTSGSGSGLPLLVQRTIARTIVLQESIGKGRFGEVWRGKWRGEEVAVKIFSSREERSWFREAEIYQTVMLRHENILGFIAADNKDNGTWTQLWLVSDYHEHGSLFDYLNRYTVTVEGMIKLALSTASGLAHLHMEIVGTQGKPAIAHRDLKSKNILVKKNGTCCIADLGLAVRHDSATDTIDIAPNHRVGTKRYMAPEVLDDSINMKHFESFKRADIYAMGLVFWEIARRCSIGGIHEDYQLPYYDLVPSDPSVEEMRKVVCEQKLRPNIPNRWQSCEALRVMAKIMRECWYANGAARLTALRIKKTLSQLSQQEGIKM", "assay": "KINOMEscan scanEDGE", "format": "binding", "conditions": "read-out: Percent Control", "experimental": "as §1"}, "[3]": {"target": "T23, ABL1(T315I)-phosphorylated (Homo sapiens, UniProt P00519, T315I)", "T23 construct": "purchased Eurofins DiscoverX", "assay": "KINOMEscan scanEDGE", "format": "binding", "conditions": "read-out: Percent Control", "experimental": "as §1"}, "DYRK1B": {"target": "T24, DYRK1B (Homo sapiens, UniProt Q9Y463)", "T24 construct": "purchased Eurofins DiscoverX", "assay": "KINOMEscan scanEDGE", "format": "binding", "conditions": "read-out: Percent Control", "experimental": "as §1"}, "ERBB2": {"target": "T25, ERBB2 (Homo sapiens, UniProt P04626)", "T25 construct": "purchased Eurofins DiscoverX", "T25 sequence (P04626 23-1255)": "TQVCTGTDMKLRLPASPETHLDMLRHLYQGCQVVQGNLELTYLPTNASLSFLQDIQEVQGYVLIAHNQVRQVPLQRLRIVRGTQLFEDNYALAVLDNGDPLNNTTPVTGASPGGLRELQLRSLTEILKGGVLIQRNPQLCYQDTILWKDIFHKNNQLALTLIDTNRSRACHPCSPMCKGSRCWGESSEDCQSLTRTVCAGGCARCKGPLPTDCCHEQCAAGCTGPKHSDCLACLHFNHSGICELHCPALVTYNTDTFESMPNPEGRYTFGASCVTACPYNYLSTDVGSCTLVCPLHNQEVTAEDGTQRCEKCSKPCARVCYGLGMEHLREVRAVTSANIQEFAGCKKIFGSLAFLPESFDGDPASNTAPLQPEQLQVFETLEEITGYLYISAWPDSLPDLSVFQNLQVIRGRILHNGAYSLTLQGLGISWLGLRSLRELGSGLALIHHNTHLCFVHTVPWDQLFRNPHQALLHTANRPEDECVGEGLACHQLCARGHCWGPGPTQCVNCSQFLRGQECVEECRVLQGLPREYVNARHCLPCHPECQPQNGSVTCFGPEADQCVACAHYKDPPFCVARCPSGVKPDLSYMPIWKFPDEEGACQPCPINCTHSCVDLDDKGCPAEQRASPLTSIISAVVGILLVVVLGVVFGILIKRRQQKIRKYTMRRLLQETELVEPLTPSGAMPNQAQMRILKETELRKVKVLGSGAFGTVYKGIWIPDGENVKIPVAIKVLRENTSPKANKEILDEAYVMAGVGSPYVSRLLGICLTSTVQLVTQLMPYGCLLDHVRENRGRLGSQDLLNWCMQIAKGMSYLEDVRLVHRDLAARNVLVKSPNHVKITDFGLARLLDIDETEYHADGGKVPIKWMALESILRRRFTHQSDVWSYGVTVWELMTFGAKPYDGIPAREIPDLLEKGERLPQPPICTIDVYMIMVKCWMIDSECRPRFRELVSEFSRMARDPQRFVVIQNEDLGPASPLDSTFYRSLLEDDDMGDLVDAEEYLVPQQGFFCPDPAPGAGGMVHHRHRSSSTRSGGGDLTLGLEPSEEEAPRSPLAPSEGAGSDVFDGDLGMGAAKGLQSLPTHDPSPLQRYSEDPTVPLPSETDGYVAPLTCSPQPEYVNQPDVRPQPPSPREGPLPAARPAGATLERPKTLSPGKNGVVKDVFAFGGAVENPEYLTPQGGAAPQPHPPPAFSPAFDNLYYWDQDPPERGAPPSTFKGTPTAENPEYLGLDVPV", "assay": "KINOMEscan scanEDGE", "format": "binding", "conditions": "read-out: Percent Control", "experimental": "as §1"}, "RAF1": {"target": "T26, RAF1 (Homo sapiens, UniProt P04049)", "T26 construct": "purchased Eurofins DiscoverX KINOMEscan scanEDGE", "T26 sequence (P04049 whole entry)": "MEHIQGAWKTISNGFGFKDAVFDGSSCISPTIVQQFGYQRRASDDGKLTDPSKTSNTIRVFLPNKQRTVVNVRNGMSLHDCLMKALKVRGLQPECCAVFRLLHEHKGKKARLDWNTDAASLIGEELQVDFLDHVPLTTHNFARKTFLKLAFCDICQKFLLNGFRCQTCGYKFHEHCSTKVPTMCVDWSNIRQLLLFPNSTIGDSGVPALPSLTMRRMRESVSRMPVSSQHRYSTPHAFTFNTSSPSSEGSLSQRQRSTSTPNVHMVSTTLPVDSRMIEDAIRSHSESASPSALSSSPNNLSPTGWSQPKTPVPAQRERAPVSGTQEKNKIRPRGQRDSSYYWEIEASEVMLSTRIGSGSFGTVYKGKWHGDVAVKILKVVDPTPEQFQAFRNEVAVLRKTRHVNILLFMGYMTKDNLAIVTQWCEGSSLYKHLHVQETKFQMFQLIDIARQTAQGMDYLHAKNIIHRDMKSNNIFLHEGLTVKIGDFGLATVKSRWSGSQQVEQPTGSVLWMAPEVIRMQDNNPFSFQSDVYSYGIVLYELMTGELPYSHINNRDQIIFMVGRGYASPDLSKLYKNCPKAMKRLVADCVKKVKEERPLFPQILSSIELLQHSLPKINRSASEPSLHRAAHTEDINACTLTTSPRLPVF", "assay": "KINOMEscan scanEDGE", "format": "binding", "conditions": "read-out: Percent Control", "experimental": "as §1"}, "EGFR": {"target": "T27, EGFR (Homo sapiens, UniProt P00533)", "T27 construct": "purchased Eurofins DiscoverX", "T27 sequence (P00533 25-1210)": "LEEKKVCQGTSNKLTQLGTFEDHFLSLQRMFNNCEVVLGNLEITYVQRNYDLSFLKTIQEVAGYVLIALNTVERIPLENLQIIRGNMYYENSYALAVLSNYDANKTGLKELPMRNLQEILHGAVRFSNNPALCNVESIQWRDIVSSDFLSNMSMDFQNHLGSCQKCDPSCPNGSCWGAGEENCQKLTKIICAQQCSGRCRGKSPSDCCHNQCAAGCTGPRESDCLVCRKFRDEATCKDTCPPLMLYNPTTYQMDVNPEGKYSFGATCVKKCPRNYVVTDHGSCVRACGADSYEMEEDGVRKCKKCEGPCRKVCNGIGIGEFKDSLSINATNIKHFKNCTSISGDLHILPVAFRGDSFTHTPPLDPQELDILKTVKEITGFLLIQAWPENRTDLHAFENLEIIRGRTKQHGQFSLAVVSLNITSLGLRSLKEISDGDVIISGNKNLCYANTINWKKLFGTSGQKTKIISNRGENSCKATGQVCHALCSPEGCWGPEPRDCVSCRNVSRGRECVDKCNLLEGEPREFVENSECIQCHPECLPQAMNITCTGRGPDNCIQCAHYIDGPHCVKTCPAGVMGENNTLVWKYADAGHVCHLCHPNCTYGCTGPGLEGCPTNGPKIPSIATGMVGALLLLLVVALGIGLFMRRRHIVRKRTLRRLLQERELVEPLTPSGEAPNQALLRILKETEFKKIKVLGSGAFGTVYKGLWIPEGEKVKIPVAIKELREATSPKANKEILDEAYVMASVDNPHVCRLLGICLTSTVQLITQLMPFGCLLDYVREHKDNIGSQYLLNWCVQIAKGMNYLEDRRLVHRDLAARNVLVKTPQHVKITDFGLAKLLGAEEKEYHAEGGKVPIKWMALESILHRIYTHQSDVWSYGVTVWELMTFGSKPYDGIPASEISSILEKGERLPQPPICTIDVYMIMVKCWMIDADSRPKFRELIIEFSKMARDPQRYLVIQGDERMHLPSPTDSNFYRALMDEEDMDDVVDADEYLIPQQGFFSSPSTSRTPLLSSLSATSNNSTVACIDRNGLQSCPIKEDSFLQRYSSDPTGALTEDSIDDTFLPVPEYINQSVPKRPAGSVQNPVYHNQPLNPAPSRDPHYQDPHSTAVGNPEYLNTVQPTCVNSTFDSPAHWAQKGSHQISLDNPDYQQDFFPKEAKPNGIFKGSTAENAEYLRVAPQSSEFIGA", "assay": "KINOMEscan scanEDGE", "format": "binding", "conditions": "read-out: Percent Control", "experimental": "as §1"}, "YANK3": {"target": "T28, YANK3 (Homo sapiens, UniProt Q86UX6)", "T28 construct": "purchased Eurofins DiscoverX KINOMEscan scanEDGE", "assay": "KINOMEscan scanEDGE", "format": "binding", "conditions": "read-out: Percent Control", "experimental": "as §1"}, "LKB1": {"target": "T29, LKB1 (Homo sapiens, UniProt Q15831)", "T29 construct": "purchased Eurofins DiscoverX (KINOMEscan scanEDGE service)", "conditions": "10 μM; cited from earlier work"}, "PLK1": {"target": "T30, PLK1 (Homo sapiens, UniProt P53350)", "T30 construct": "purchased Eurofins DiscoverX KINOMEscan scanEDGE", "conditions": "10 μM; cited from earlier work"}, "TGFBR1 [4]": {"target": "T22, TGFBR1", "conditions": "10 μM; cited from earlier work"}, "ALK": {"target": "T31, ALK (Homo sapiens, UniProt Q9UM73)", "T31 construct": "purchased Eurofins DiscoverX", "conditions": "10 μM; cited from earlier work"}}}
{"smiles": "COc1ccc2c3ccnc(C)c3n(CCN(C)C)c2c1.O=C(O)/C=C/C(=O)O", "note": "[HTW_A_8 fumarate, 2-(7-methoxy-1-methyl-9H-pyrido[3,4-b]indol-9-yl)-N,N-dimethylethan-1-amine Fumarate Salt (2:3)]", "values": [{"measurement": "remaining binding at 10 µM", "setting": "KIT(V559D, T670I)", "value": 89, "unit": "%"}, {"measurement": "remaining binding at 10 µM", "setting": "EGFR(L858R)", "value": 87, "unit": "%"}, {"measurement": "remaining binding at 10 µM", "setting": "DCAMKL1", "value": 98, "unit": "%"}, {"measurement": "remaining binding at 10 µM", "setting": "MAPKAPK2", "value": 99, "unit": "%"}, {"measurement": "remaining binding at 10 µM", "setting": "p38-alpha", "value": 100, "unit": "%"}, {"measurement": "remaining binding at 10 µM", "setting": "AXL", "value": 97, "unit": "%"}, {"measurement": "remaining binding at 10 µM", "setting": "MKNK1", "value": 93, "unit": "%"}, {"measurement": "remaining binding at 10 µM", "setting": "KIT", "value": 100, "unit": "%"}, {"measurement": "remaining binding at 10 µM", "setting": "BTK", "value": 100, "unit": "%"}, {"measurement": "remaining binding at 10 µM", "setting": "[1]", "value": 100, "unit": "%"}, {"measurement": "remaining binding at 10 µM", "setting": "CDK11", "value": 95, "unit": "%"}, {"measurement": "remaining binding at 10 µM", "setting": "MEK2", "value": 82, "unit": "%"}, {"measurement": "remaining binding at 10 µM", "setting": "PIM1", "value": 94, "unit": "%"}, {"measurement": "remaining binding at 10 µM", "setting": "AURKB", "value": 100, "unit": "%"}, {"measurement": "remaining binding at 10 µM", "setting": "MAP3K4", "value": 100, "unit": "%"}, {"measurement": "remaining binding at 10 µM", "setting": "AKT2", "value": 100, "unit": "%"}, {"measurement": "remaining binding at 10 µM", "setting": "PAK2", "value": 96, "unit": "%"}, {"measurement": "remaining binding at 10 µM", "setting": "CSNK1G2", "value": 86, "unit": "%"}, {"measurement": "remaining binding at 10 µM", "setting": "PIK3CA", "value": 100, "unit": "%"}, {"measurement": "remaining binding at 10 µM", "setting": "MEK1", "value": 87, "unit": "%"}, {"measurement": "remaining binding at 10 µM", "setting": "MKNK2", "value": 100, "unit": "%"}, {"measurement": "remaining binding at 10 µM", "setting": "TGFBR1 [2]", "value": 90, "unit": "%"}, {"measurement": "remaining binding at 10 µM", "setting": "[3]", "value": 100, "unit": "%"}, {"measurement": "remaining binding at 10 µM", "setting": "DYRK1B", "value": 10, "unit": "%"}, {"measurement": "remaining binding at 10 µM", "setting": "ERBB2", "value": 100, "unit": "%"}, {"measurement": "remaining binding at 10 µM", "setting": "RAF1", "value": 93, "unit": "%"}, {"measurement": "remaining binding at 10 µM", "setting": "EGFR", "value": 84, "unit": "%"}, {"measurement": "remaining binding at 10 µM", "setting": "YANK3", "value": 94, "unit": "%"}]}
{"smiles": "COc1ccc2c(c1)[nH]c1c(C)nccc12", "note": "[Harmine, harmine]", "values": [{"measurement": "Percent Control", "setting": "LKB1", "value": 91, "unit": "%"}, {"measurement": "Percent Control", "setting": "PLK1", "value": 93, "unit": "%"}, {"measurement": "Percent Control", "setting": "TGFBR1 [4]", "value": 91, "unit": "%"}, {"measurement": "Percent Control", "setting": "ALK", "value": 92, "unit": "%"}]}
